# In publication PMC10916402, “Meropenem-ANT3310, a unique β-lactam-β-lactamase inhibitor combination with expanded antibacterial spectrum against Gram-negative pathogens including carbapenem-resistant Acinetobacter baumannii” (Antimicrobial Agents and Chemotherapy, 2024):
# Values joined by “and” are separate entries in the source; they are usually repeats but may differ in a detail not shown here. Equal entries are not always repeated.
# What was measured:
# [1] = system: OXA-producing Enterobacterales (OXA-CRE); assay: organism not typed; format: cell-based; details: 252 OXA-producing Enterobacterales
# Method: (§1) All isolates were randomly selected from the frozen culture collection of IHMA collected in 2018 and 2019. Matrix-assisted laser desorption ionization-time of flight mass spectrometry was used to confirm the identity of the organisms tested (Bruker Daltonics, Bremen, Germany).
# (§2) MICs for all antimicrobial agents were determined at IHMA by broth microdilution in accordance with both CLSI ([17]) and EUCAST ([18]) guidelines. Microtiter panels were prepared by IHMA and stored at −70°C in cation-adjusted Mueller Hinton broth (CAMHB) (Becton Dickinson). Iron-depleted CAMHB was used to test cefiderocol. Panels containing ANT3310 were prepared fresh on the day of testing. […] MIC values corresponded to the first well with no visible growth. Quality control testing was performed on each day of testing with E. coli ATCC 25922, P. aeruginosa ATCC 27853, K. pneumoniae ATCC 700603 and BAA 1705, and A. baumannii NCTC 13304. MICs were interpreted using 2023 CLSI ([17]) and EUCAST ([18]) BPs.
# [2] = system: KPC-producing Enterobacterales (KPC-CRE); assay: organism not typed; format: cell-based; details: 180 KPC-producing Enterobacterales
# Method: as §1, §2
# [3] = system: P. aeruginosa clinical isolates; assay: Broth microdilution MIC, P. aeruginosa clinical isolates; format: cell-based, Pseudomonas aeruginosa; details: 502 P. aeruginosa, 2019 global collection
# Method: as §1, §2
# [4] = system: A. baumannii clinical isolates; assay: Broth microdilution MIC, A. baumannii clinical isolates; format: cell-based, Acinetobacter baumannii; details: for CLSI % Res: CLSI BP, for MEM-ANT3310 % at ≥16 µg/mL; for EUCAST % Res / EUCAST % Sus: EUCAST BP; for Number of isolates inhibited at MIC of >16 µg/mL: footnote c
# Method: as §1, §2
# [5] = system: carbapenem-resistant Acinetobacter baumannii (CRAB) clinical isolates; assay: Broth microdilution MIC, CRAB isolates; format: cell-based; details: for CLSI % Res / EUCAST % Res / EUCAST % Sus / Number of isolates inhibited at MIC of >16 µg/mL: CRAB; for CLSI % Res: CLSI BP, for MEM-ANT3310 % at ≥16 µg/mL; for EUCAST % Res / EUCAST % Sus: EUCAST BP; for Number of isolates inhibited at MIC of >16 µg/mL: footnote c
# Method: as §1, §2
# [6] = CLSI BP, for MEM-ANT3310 % at ≥16 µg/mL
# [7] = 2018 Global collection, All A. baumannii, N 500
# [8] = 2019 Global collection, All A. baumannii, N 405
substance,measurement,setting,value
colistin,MIC50,[1]; 2018 global collection,0.25 µg/mL
same,MIC90,[1]; 2018 global collection,8 µg/mL
same,CLSI % Res,[1]; [6],23.8%
same,EUCAST % Res,[1]; EUCAST BP,23.8%
same,EUCAST % Sus,[1]; EUCAST BP,76.2%
same,MIC50,[2]; 2018 global collection,0.25 µg/mL
same,MIC90,[2]; 2018 global collection,16 µg/mL
same,CLSI % Res,[2]; [6],26.7%
same,EUCAST % Res,[2]; EUCAST BP,26.7%
same,EUCAST % Sus,[2]; EUCAST BP,73.3%
same,MIC50,[3],1 µg/mL
same,MIC90,[3],1 µg/mL
same,Number of isolates inhibited at MIC of 0.25 µg/mL,[3],4
same,Number of isolates inhibited at MIC of 0.5 µg/mL,[3],21
same,Number of isolates inhibited at MIC of 1 µg/mL,[3],452
same,Number of isolates inhibited at MIC of 2 µg/mL,[3],21
same,Number of isolates inhibited at MIC of 4 µg/mL,[3],2
same,Number of isolates inhibited at MIC of 16 µg/mL,[3],1
same,Number of isolates inhibited at MIC of ≤0.125 µg/mL,[3],1
same,MIC50,[4]; [7],0.25 µg/mL
same,MIC90,[4]; [7],0.5 µg/mL
same,Number of isolates inhibited at MIC of 0.25 µg/mL,[4]; [7],287
same,Number of isolates inhibited at MIC of 0.5 µg/mL,[4]; [7],165
same,Number of isolates inhibited at MIC of 1 µg/mL,[4]; [7],15
same,Number of isolates inhibited at MIC of 4 µg/mL,[4]; [7],3
same,Number of isolates inhibited at MIC of 8 µg/mL,[4]; [7],2
same,Number of isolates inhibited at MIC of 16 µg/mL,[4]; [7],2
same,Number of isolates inhibited at MIC of ≤0.125 µg/mL,[4]; [7],22
same,CLSI % Res,[4]; [7],2.2%
same,EUCAST % Res,[4]; [7],2.2%
same,EUCAST % Sus,[4]; [7],97.8%
same,Number of isolates inhibited at MIC of >16 µg/mL,[4]; [7],4^c
same,MIC50,[4]; [8],0.5 µg/mL
same,MIC90,[4]; [8],1 µg/mL
same,Number of isolates inhibited at MIC of 0.25 µg/mL,[4]; [8],32
same,Number of isolates inhibited at MIC of 0.5 µg/mL,[4]; [8],296
same,Number of isolates inhibited at MIC of 1 µg/mL,[4]; [8],66
same,Number of isolates inhibited at MIC of 2 µg/mL,[4]; [8],5
same,Number of isolates inhibited at MIC of 4 µg/mL,[4]; [8],1
same,Number of isolates inhibited at MIC of 16 µg/mL,[4]; [8],1
same,CLSI % Res,[4]; [8],1.5%
same,EUCAST % Res,[4]; [8],1.5%
same,EUCAST % Sus,[4]; [8],98.5%
same,Number of isolates inhibited at MIC of >16 µg/mL,[4]; [8],4^c
same,% susceptible at EUCAST BP,"[4]; A. baumannii, 2018/2019 collections",98.1%
same,MIC90,"[4]; A. baumannii, one or both of the 2018/2019 collections",1 µg/mL
same,MIC50,[5],0.25 µg/mL and 0.5 µg/mL
same,MIC90,[5],0.5 µg/mL and 1 µg/mL
same,Number of isolates inhibited at MIC of 4 µg/mL,[5],2
same,Number of isolates inhibited at MIC of 8 µg/mL,[5],2
same,Number of isolates inhibited at MIC of 16 µg/mL,[5],2
same,Number of isolates inhibited at MIC of ≤0.125 µg/mL,[5],13
same,CLSI % Res,"[5]; 2018 Global collection, N 363",2.8%
same,EUCAST % Res,"[5]; 2018 Global collection, N 363",2.8%
same,EUCAST % Sus,"[5]; 2018 Global collection, N 363",97.2%
same,Number of isolates inhibited at MIC of >16 µg/mL,"[5]; 2018 Global collection, N 363",4^c
same,Number of isolates inhibited at MIC of 2 µg/mL,"[5]; 2019 Global collection, CRAB (MEM MICs >4 µg/mL), N 340",4
same,CLSI % Res,"[5]; 2019 Global collection, N 340",1.2%
same,EUCAST % Res,"[5]; 2019 Global collection, N 340",1.2%
same,EUCAST % Sus,"[5]; 2019 Global collection, N 340",98.8%
same,Number of isolates inhibited at MIC of >16 µg/mL,"[5]; 2019 Global collection, N 340",4^c
